This note sets out measurements from patent publication US9617256B2 (priority 2007, dated 2017).

≈ marks a conversion by molar mass, not a printed value. Where two headings read alike, the source gives them in different places.

In assay [1] the test system is APAE001 (ATCC27853). Put plainly: MIC broth microdilution, APAE001. The assay is classed as cell-based, P. aeruginosa. As to conditions: Pseudomonas aeruginosa, ATCC27853, read-out: MIC APAE001, APAE001 (ATCC27853). How it is done:
(§1) Bacterial isolates were cultivated from −70° C. frozen stocks by overnight passages at 35° C. in ambient air on Mueller-Hinton agar (Beckton Dickinson, Franklin Lakes, N.J.). Clinical isolates tested were obtained from various geographically diverse hospitals in the US and abroad (Focus Diagnostics, Herndon, Va. and JMI, North Liberty, Iowa). Quality control strains were from the American Type Culture Collection (ATCC; Rockville, Md.). Additional primary panel strains were generated using standard molecular biology techniques.
(§2) Minimum Inhibitory Concentrations (MICs) were determined by the broth microdilution method in accordance with the Clinical and Laboratory Standards Institute (CLSI) guidelines. In brief, organism suspensions were adjusted to a 0.5 McFarland standard to yield a final inoculum between 3×10^5 and 7×10^5 colony-forming units (CFU)/mL. Drug dilutions and inocula were made in sterile, cation adjusted Mueller-Hinton Broth (Beckton Dickinson). An inoculum volume of 100 μL was added to wells containing 100 μL of broth with 2-fold serial dilutions of drug. All inoculated microdilution trays were incubated in ambient air at 35° C. for 18-24 hours. […] Performance of the assay was monitored by the use of laboratory quality-control strains and levofloxacin, a compound with a defined MIC spectrum, in accordance with CLSI guidelines.
(§3) *AECO001 is ATCC25922, AECO063 is ATCC25922 bearing an acrAB mutation, APAE001 is ATCC27853, APAE006 is a strain of P. aeruginosa in which all efflux pumps are inactivated, APAE006+PMBN indicates MICs with the indicated strain in the presence of 8 micrograms per milliliter of polymyxin B nonapeptide, AABA1060 is a clinical isolate of Acinetobacter baumannii, ASAU001 is a laboratory strain of S. aureus (ATCC29213).

The test system of assay [2] is AABA1060 (clinical isolate of Acinetobacter baumannii). Put plainly: MIC broth microdilution, AABA1060. The assay is classed as cell-based. Conditions: Acinetobacter baumannii, read-out: MIC AABA1060. How it is done: as §1, §2, §3
(In broth dilution the organism is exposed to a series of concentrations in liquid medium.)

For assay [3], the system named is APAE006 in the presence of 8 micrograms per milliliter of polymyxin B nonapeptide. The assay is classed as cell-based, P. aeruginosa. Conditions: APAE006 with 8 micrograms per milliliter polymyxin B nonapeptide. On the procedure: as §1, §2, §3
Assay [4] relates to APAE006 (strain of P. aeruginosa in which all efflux pumps are inactivated). Put plainly: microbe, parasite or virus in culture. The assay is classed as cell-based. Conditions: Pseudomonas aeruginosa, read-out: MIC APAE006, APAE006, all efflux pumps inactivated. How it is done: as §1, §2, §3
Assay [5] has as its system ASAU001 (laboratory strain of S. aureus, ATCC29213). The assay is described as follows: MIC broth microdilution, ASAU001. As to conditions: Staphylococcus aureus, ATCC29213, read-out: MIC ASAU001. The format is cell-based. On the procedure: as §1, §2, §3
The subject of assay [6] is AECO001 (ATCC25922). Put plainly: MIC broth microdilution, AECO001. The format is cell-based, E. coli. As to conditions: Escherichia coli. How it is done: as §1, §2, §3
For assay [7], the system named is AECO063 (ATCC25922 bearing an acrAB mutation). Put plainly: microbe, parasite or virus in culture. The assay is classed as cell-based, E. coli. Conditions: Escherichia coli, ATCC25922, read-out: MIC AECO063. How it is done: as §1, §2, §3
Setting [8] is: ATCC25922, read-out: MIC AECO001.
[9] abbreviates: ATCC25922, read-out: MIC AECO001 HSA AGP.

As for `C[C@@H](N)[C@H](NC(=O)c1ccc(C#Cc2ccc(NC(=O)CNC3CC3)cc2)cc1)C(=O)NO` [Example 130-1, N-((1S,2R)-2-Amino-1-hydroxycarbamoyl-propyl)-4-[4-(2-cyclopropylamino-acetylamino)-phenylethynyl]-benzamide], the MIC was below 2 µg/mL in assay [1]; 2 to 16 µg/mL (≈ 4.45 to 35.6 µM) in assay [2]; below 2 µg/mL in assay [4]; 16 to 64 µg/mL (≈ 35.6 to 142 µM) in assay [5]; 2 to 16 µg/mL (≈ 4.45 to 35.6 µM) in assay [6] (setting [8]); 16 to 64 µg/mL (≈ 35.6 to 142 µM) in assay [6] (setting [9]). For the same molecule, in assay [7], the MIC was below 2 µg/mL. For the same molecule, the “MIC APAE006 + PMBN” value in assay [3] is recorded as “A (MIC's of 2.0 μg/mL or less = A)”.

Take `C[C@@H](O)[C@H](NC(=O)c1ccc(C#Cc2ccc(CNCC(F)F)cc2)cc1)C(=O)NO` [Example 119-4]: the MIC in assay [1] is below 2 µg/mL; in assay [2] it was 2 to 16 µg/mL (≈ 4.64 to 37.1 µM); in assay [4], below 2 µg/mL; in assay [5], 16 to 64 µg/mL (≈ 37.1 to 148 µM); in assay [6] (setting [8]), below 2 µg/mL; in assay [6] (setting [9]), below 2 µg/mL. In addition, the MIC in assay [7] is below 2 µg/mL. Besides, in assay [3], the “MIC APAE006 + PMBN” value is on record as “A (MIC's of 2.0 μg/mL or less = A)”.

Turning to `CC(C)(N)[C@@H](NC(=O)c1ccc(C#Cc2ccc(CNC3CC3)cc2)cc1)C(=O)NO` [Compound 121-2], the MIC in assay [1] is 16 to 64 µg/mL (≈ 38 to 152 µM); in assay [2] it was 16 to 64 µg/mL (≈ 38 to 152 µM); in assay [4], below 2 µg/mL; in assay [5] it was 16 to 64 µg/mL (≈ 38 to 152 µM); in assay [6] (setting [8]), 2 to 16 µg/mL (≈ 4.76 to 38 µM); in assay [6] (setting [9]) it was 16 to 64 µg/mL (≈ 38 to 152 µM). The MIC in assay [7] is 2 to 16 µg/mL (≈ 4.76 to 38 µM). Further, the “MIC APAE006 + PMBN” value in assay [3] was “A (MIC's of 2.0 μg/mL or less = A)”.

As to `CCOCc1ccc(C#CC#Cc2ccc(C(=O)N[C@H](C(=O)NO)[C@@H](C)O)cc2)cc1` [Example 82-20], the MIC is 2 to 16 µg/mL (≈ 4.76 to 38.1 µM) in assay [1]; 2 to 16 µg/mL (≈ 4.76 to 38.1 µM) in assay [2]; below 2 µg/mL in assay [4]; 16 to 64 µg/mL (≈ 38.1 to 152 µM) in assay [5]; below 2 µg/mL in assay [6] (setting [8]); 2 to 16 µg/mL (≈ 4.76 to 38.1 µM) in assay [6] (setting [9]). Besides, in assay [7], the MIC is below 2 µg/mL. In addition, the “MIC APAE006 + PMBN” value in assay [3] is reported as “A (MIC's of 2.0 μg/mL or less = A)”.

For `O=C(NC(C(=O)NO)C1(O)CC1)c1ccc(C#CC#CC2CC2)cc1` (centres unmarked) [Example 94-1, 4-(cyclopropylbuta-1,3-diynyl)-N-(2-(hydroxyamino)-1-(1-hydroxycyclopropyl)-2-oxoethyl)benzamide], the MIC was below 2 µg/mL in assay [1]; 2 to 16 µg/mL (≈ 5.91 to 47.3 µM) in assay [2]; below 2 µg/mL in assay [4]; 16 to 64 µg/mL (≈ 47.3 to 189 µM) in assay [5]; below 2 µg/mL in assay [6] (setting [8]); 2 to 16 µg/mL (≈ 5.91 to 47.3 µM) in assay [6] (setting [9]). Further, in assay [7], the MIC was below 2 µg/mL. For the same molecule, in assay [3], the “MIC APAE006 + PMBN” value is recorded as “A (MIC's of 2.0 μg/mL or less = A)”.

With `C[C@@H](N)[C@H](NC(=O)c1ccc(C#CC(O)c2ccccc2)cc1)C(=O)NO` (some centres unmarked) [Example 137-20], the MIC in assay [1] is 16 to 64 µg/mL (≈ 43.5 to 174 µM); in assay [2], 2 to 16 µg/mL (≈ 5.44 to 43.5 µM); in assay [4] it was 2 to 16 µg/mL (≈ 5.44 to 43.5 µM); in assay [5], 16 to 64 µg/mL (≈ 43.5 to 174 µM); in assay [6] (setting [8]), 16 to 64 µg/mL (≈ 43.5 to 174 µM); in assay [6] (setting [9]) it was 16 to 64 µg/mL (≈ 43.5 to 174 µM). Moreover, the MIC in assay [7] lay within 16 to 64 µg/mL (≈ 43.5 to 174 µM). Besides, the “MIC APAE006 + PMBN” value in assay [3] is reported as “A (MIC's of 2.0 μg/mL or less = A)”.

For `CC(C)(O)[C@H](NC(=O)c1ccc(C#C/C=C/c2ccncc2)cc1)C(=O)NO` [Example 106-2], the MIC in assay [1] was 2 to 16 µg/mL (≈ 5.27 to 42.2 µM); in assay [2], 2 to 16 µg/mL (≈ 5.27 to 42.2 µM); in assay [4], below 2 µg/mL; in assay [5], 16 to 64 µg/mL (≈ 42.2 to 169 µM); in assay [6] (setting [8]), below 2 µg/mL; in assay [6] (setting [9]), 2 to 16 µg/mL (≈ 5.27 to 42.2 µM). The MIC in assay [7] was below 2 µg/mL. Besides, the “MIC APAE006 + PMBN” value in assay [3] is listed as “A (MIC's of 2.0 μg/mL or less = A)”.
